According to patent publication US20130225508A1, “PEPTIDE CAPABLE OF BINDING TO IMMUNOGLOBULIN” (priority 2010, published 2013):

System: adjuvant-induced arthritis
Assay: Adjuvant arthritis rat model
Format: in vivo, Lewis/CrlCrlj rats
Parameters: key to Redness scores (left hind-limb) / Redness scores (right hind-limb): 0 = no redness, 4 = severe redness; key to Scores of swelling in the instep (left hind-limb) / Scores of swelling in the instep (right hind-limb): 0 = no swelling, 4 = severe swelling; key to Scores of swelling in knuckle joints (left hind-limb) / Scores of swelling in knuckle joints (right hind-limb): 0 = no swelling, 4 = swelling of all the digits
Description: Male Lewis/CrlCrlj (SPF) rats were used to investigate the arthritis suppressing effect of a peptide of the present invention on adjuvant-induced arthritis. Forty-five rats were purchased from Charles River Laboratories Japan, Inc., and fed normal chow and allowed to acclimate for 7 days before used (the range of body weights was from 193.3 to 218.3 g at the beginning of use).
In an agate motor, dead tubercle bacilli (Mycobacterium butyricum; Lot No. 0260570, Difco) were pulverized. Then, liquid paraffin was added in small amounts to spread the pulverized bacilli well, so as to allow them to be emulsified at 1.0 mg/mL. The resultant emulsion was used after verification to ensure that the pulverized bacilli had been allowed to be finely emulsified, using an NM MICRONIZER (Nippon Seiki Co., Ltd.).
A right hind-limb of the respective rats was exposed, and 100 μL of the emulsion was intradermally injected once into a footpad of the right hind-limb using a 25G-needle attached syringe, to cause arthritis (day 0).
Each of the groups was comprised of 5 animals.
Arthritis was evaluated only for the hind-limbs, based on the criteria described below:
Score 0: no swelling Score 1: swelling of not more than two digits Score 2: swelling of three digits Score 3: swelling of four digits Score 4: swelling of all the digits
Score 0: no swelling Score 1: mild swelling Score 2: modest swelling Score 3: rather severe swelling Score 4: severe swelling
Score 0: no redness Score 1: mild redness Score 2: modest redness Score 3: rather severe redness Score 4: severe redness (iii) Measurement of Foot Volumes of Left And Right Hind-Limbs
Measurement was performed using a plethysmometer (UNICOM TK105). The increasing rate foot volume (percentage of paw swelling, paw swelling %) was calculated by the following formula:
Percent paw swelling (%)=[(Vt−Vo)/Vo]×100
In addition, in these examinations, the percent change of edema relative to day 10 post-adjuvant was calculated, in order to assess the effect of treatment with the test substances.
Data are expressed by mean±standard error. Since the uniformity of variance was not verified in testing between the negative and the positive control groups, testing for significant difference was performed by Aspin-Welch t-test. Since the uniformity of variance was not verified in testing for significant differences of the respective test-substance administered groups relative to the positive control group, assessment was performed by Dunnett's multiple comparison test after Kruskal-Wallis testing, using non-parametric procedures. Differences were considered to be statistically significant at p values of less than 0.05.

[1] = Day 0 post-adjuvant, 0.15 mg/kg oral from day 10
[2] = Day 0 post-adjuvant, 0.15 mg/kg oral, pre-administered group
[3] = Day 3 post-adjuvant, 0.15 mg/kg oral from day 10
[4] = Day 3 post-adjuvant, 0.15 mg/kg oral, pre-administered group
[5] = Day 7 post-adjuvant, 0.15 mg/kg oral from day 10
[6] = Day 7 post-adjuvant, 0.15 mg/kg oral, pre-administered group
[7] = Day 10 post-adjuvant, 0.15 mg/kg oral from day 10
[8] = Day 10 post-adjuvant, 0.15 mg/kg oral, pre-administered group
[9] = Day 14 post-adjuvant, 0.15 mg/kg oral from day 10
[10] = Day 14 post-adjuvant, 0.15 mg/kg oral, pre-administered group
[11] = Day 17 post-adjuvant, 0.15 mg/kg oral from day 10
[12] = Day 17 post-adjuvant, 0.15 mg/kg oral, pre-administered group
[13] = Day 21 post-adjuvant, 0.15 mg/kg oral from day 10
[14] = Day 21 post-adjuvant, 0.15 mg/kg oral, pre-administered group

CN(Cc1cnc2nc(N)nc(N)c2n1)c1ccc(C(=O)N[C@@H](CCC(=O)O)C(=O)O)cc1 [Methotrexate]
Redness scores (left hind-limb) [1]: 0.0 ± 0.0
Redness scores (right hind-limb) [1]: 0.0 ± 0.0
Scores of swelling in knuckle joints (left hind-limb) [1]: 0.0 ± 0.0
Scores of swelling in knuckle joints (right hind-limb) [1]: 0.0 ± 0.0
Scores of swelling in the instep (left hind-limb) [1]: 0.0 ± 0.0
Scores of swelling in the instep (right hind-limb) [1]: 0.0 ± 0.0
Total scores (left hind-limb) [1]: 0.0 ± 0.0
Total scores (right hind-limb) [1]: 0.0 ± 0.0
Redness scores (left hind-limb) [2]: 0.0 ± 0.0
Redness scores (right hind-limb) [2]: 0.0 ± 0.0
Scores of swelling in knuckle joints (left hind-limb) [2]: 0.0 ± 0.0
Scores of swelling in knuckle joints (right hind-limb) [2]: 0.0 ± 0.0
Scores of swelling in the instep (left hind-limb) [2]: 0.0 ± 0.0
Scores of swelling in the instep (right hind-limb) [2]: 0.0 ± 0.0
Total scores (left hind-limb) [2]: 0.0 ± 0.0
Total scores (right hind-limb) [2]: 0.0 ± 0.0
Redness scores (left hind-limb) [3]: 0.0 ± 0.0
Redness scores (right hind-limb) [3]: 0.0 ± 0.0
Scores of swelling in knuckle joints (left hind-limb) [3]: 0.0 ± 0.0
Scores of swelling in knuckle joints (right hind-limb) [3]: 0.0 ± 0.0
Scores of swelling in the instep (left hind-limb) [3]: 0.0 ± 0.0
Scores of swelling in the instep (right hind-limb) [3]: 0.0 ± 0.0
Total scores (left hind-limb) [3]: 0.0 ± 0.0
Total scores (right hind-limb) [3]: 0.0 ± 0.0
Redness scores (left hind-limb) [4]: 0.0 ± 0.0
Redness scores (right hind-limb) [4]: 0.0 ± 0.0
Scores of swelling in knuckle joints (left hind-limb) [4]: 0.0 ± 0.0
Scores of swelling in knuckle joints (right hind-limb) [4]: 0.0 ± 0.0
Scores of swelling in the instep (left hind-limb) [4]: 0.0 ± 0.0
Scores of swelling in the instep (right hind-limb) [4]: 0.0 ± 0.0
Total scores (left hind-limb) [4]: 0.0 ± 0.0
Total scores (right hind-limb) [4]: 0.0 ± 0.0
Redness scores (left hind-limb) [5]: 0.0 ± 0.0
Redness scores (right hind-limb) [5]: 0.4 ± 0.2
Scores of swelling in knuckle joints (left hind-limb) [5]: 0.4 ± 0.2
Scores of swelling in knuckle joints (right hind-limb) [5]: 0.6 ± 0.2
Scores of swelling in the instep (left hind-limb) [5]: 0.0 ± 0.0
Scores of swelling in the instep (right hind-limb) [5]: 1.2 ± 0.2
Total scores (left hind-limb) [5]: 0.4 ± 0.5
Total scores (right hind-limb) [5]: 2.2 ± 0.8
Redness scores (left hind-limb) [6]: 0.0 ± 0.0
Redness scores (right hind-limb) [6]: 0.2 ± 0.2
Scores of swelling in knuckle joints (left hind-limb) [6]: 0.0 ± 0.0
Scores of swelling in knuckle joints (right hind-limb) [6]: 0.4 ± 0.2
Scores of swelling in the instep (left hind-limb) [6]: 0.0 ± 0.0
Scores of swelling in the instep (right hind-limb) [6]: 0.0 ± 0.0
Total scores (left hind-limb) [6]: 0.0 ± 0.0
Total scores (right hind-limb) [6]: 0.6 ± 0.4
Redness scores (left hind-limb) [7]: 0.4 ± 0.2
Redness scores (right hind-limb) [7]: 1.4 ± 0.4
Scores of swelling in knuckle joints (left hind-limb) [7]: 0.6 ± 0.2
Scores of swelling in knuckle joints (right hind-limb) [7]: 1.6 ± 0.4
Scores of swelling in the instep (left hind-limb) [7]: 0.6 ± 0.2
Scores of swelling in the instep (right hind-limb) [7]: 1.4 ± 0.4
Total scores (left hind-limb) [7]: 1.6 ± 0.5
Total scores (right hind-limb) [7]: 4.4 ± 1.5
Redness scores (left hind-limb) [8]: 0.0 ± 0.0
Redness scores (right hind-limb) [8]: 0.0 ± 0.0
Scores of swelling in knuckle joints (left hind-limb) [8]: 0.2 ± 0.2
Scores of swelling in knuckle joints (right hind-limb) [8]: 0.2 ± 0.2
Scores of swelling in the instep (left hind-limb) [8]: 0.0 ± 0.0
Scores of swelling in the instep (right hind-limb) [8]: 0.4 ± 0.2
Total scores (left hind-limb) [8]: 0.2 ± 0.2
Total scores (right hind-limb) [8]: 0.6 ± 0.4
Redness scores (left hind-limb) [9]: 0.2 ± 0.2
Redness scores (right hind-limb) [9]: 1.0 ± 0.3
Scores of swelling in knuckle joints (left hind-limb) [9]: 0.8 ± 0.2
Scores of swelling in knuckle joints (right hind-limb) [9]: 1.2 ± 0.2
Scores of swelling in the instep (left hind-limb) [9]: 0.2 ± 0.2
Scores of swelling in the instep (right hind-limb) [9]: 1.4 ± 0.4
Total scores (left hind-limb) [9]: 1.2 ± 0.6
Total scores (right hind-limb) [9]: 3.6 ± 1.1
Redness scores (left hind-limb) [10]: 0.0 ± 0.0
Redness scores (right hind-limb) [10]: 0.2 ± 0.2
Scores of swelling in knuckle joints (left hind-limb) [10]: 0.4 ± 0.2
Scores of swelling in knuckle joints (right hind-limb) [10]: 0.8 ± 0.2
Scores of swelling in the instep (left hind-limb) [10]: 0.0 ± 0.0
Scores of swelling in the instep (right hind-limb) [10]: 0.8 ± 0.2
Total scores (left hind-limb) [10]: 0.4 ± 0.2
Total scores (right hind-limb) [10]: 1.8 ± 0.2
Redness scores (left hind-limb) [11]: 0.6 ± 0.4
Redness scores (right hind-limb) [11]: 1.2 ± 0.2
Scores of swelling in knuckle joints (left hind-limb) [11]: 0.4 ± 0.2
Scores of swelling in knuckle joints (right hind-limb) [11]: 0.6 ± 0.2
Scores of swelling in the instep (left hind-limb) [11]: 0.8 ± 0.6
Scores of swelling in the instep (right hind-limb) [11]: 2.0 ± 0.4
Total scores (left hind-limb) [11]: 1.8 ± 1.4
Total scores (right hind-limb) [11]: 3.8 ± 0.9
Redness scores (left hind-limb) [12]: 0.4 ± 0.4
Redness scores (right hind-limb) [12]: 0.8 ± 0.4
Scores of swelling in knuckle joints (left hind-limb) [12]: 0.6 ± 0.2
Scores of swelling in knuckle joints (right hind-limb) [12]: 1.0 ± 0.3
Scores of swelling in the instep (left hind-limb) [12]: 0.4 ± 0.2
Scores of swelling in the instep (right hind-limb) [12]: 1.4 ± 0.2
Total scores (left hind-limb) [12]: 1.4 ± 0.7
Total scores (right hind-limb) [12]: 3.2 ± 0.8
Redness scores (left hind-limb) [13]: 0.6 ± 0.6
Redness scores (right hind-limb) [13]: 1.2 ± 0.5
Scores of swelling in knuckle joints (left hind-limb) [13]: 0.6 ± 0.6
Scores of swelling in knuckle joints (right hind-limb) [13]: 0.8 ± 0.6
Scores of swelling in the instep (left hind-limb) [13]: 0.6 ± 0.6
Scores of swelling in the instep (right hind-limb) [13]: 2.2 ± 0.6
Total scores (left hind-limb) [13]: 1.8 ± 2.3
Total scores (right hind-limb) [13]: 4.2 ± 2.0
Redness scores (left hind-limb) [14]: 0.2 ± 0.2
Redness scores (right hind-limb) [14]: 0.8 ± 0.2
Scores of swelling in knuckle joints (left hind-limb) [14]: 0.4 ± 0.2
Scores of swelling in knuckle joints (right hind-limb) [14]: 0.8 ± 0.2
Scores of swelling in the instep (left hind-limb) [14]: 0.2 ± 0.2
Scores of swelling in the instep (right hind-limb) [14]: 1.2 ± 0.4
Total scores (left hind-limb) [14]: 0.8 ± 0.6
Total scores (right hind-limb) [14]: 2.8 ± 0.6
